The text below walks through data of patent publication US11214803B2, “Modulators of YAP1 expression” (Ionis Pharmaceuticals, Inc., priority 2019, dated 2022).

Strand notation (5' to 3'): a small letter for the sugar, then the base; units joined by * are phosphorothioate-linked, units joined directly phosphodiester-linked; [ ] holds rarer units or linkages, { } end groups; capitals alone tell only the bases. e = 2'-O-(2-methoxyethyl) (MOE); k = constrained ethyl (cEt); [5mC] = 5-methylcytosine; d = 2'-deoxy (DNA); m = 2'-O-methyl

The data set deals with Yap1 mRNA. Put plainly: Antisense inhibition of human Yap1 in SNU-449 cells by modified oligonucleotides, single dose (Example 5, RTS36584). In kind it is cell-based. Put shortly:
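Plate SNU-449 cells at 10,000 per well; add 2,000 nM modified oligonucleotide without transfection reagent; after ~48 h isolate RNA, run qRT-PCR with RTS36584, normalise to RIBOGREEN and report % UTC.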

Where [1] appears, read: Table 40 (separate experiment), SNU-449 cells, 10,000 cells per well, free uptake, 2,000 nM oligonucleotide, approx. 48 hours, RTS36584, normalized to RIBOGREEN, Yap1 mRNA relative to untreated control.
The mark [2] stands for this setting: Table 52, Yap1 mRNA, modified oligonucleotides targeting SEQ ID NO: 1 and 2.
[3] abbreviates: Table 46, Yap1 mRNA as percent of untreated control, SNU-449 cells, single dose.
Setting [4] is: Table 39, SNU-449 cells, 10,000 cells per well, free uptake, 2,000 nM oligonucleotide, approx. 48 hours, RTS36584, normalized to RIBOGREEN, Yap1 mRNA relative to untreated control.
Where [5] appears, read: Table 45, Yap1 mRNA as percent of untreated control, SNU-449 cells, single dose.
[6] abbreviates: Table 48, Yap1 mRNA level relative to untreated control, modified oligonucleotides targeting SEQ ID NO.: 1 and 2.
Where [7] appears, read: Table 42 (separate experiment), SNU-449 cells, 10,000 cells per well, free uptake, 2,000 nM modified oligonucleotide, approximately 48 hours, RTS36584, normalized to RIBOGREEN, Yap1 mRNA relative to untreated control cells.
The mark [8] stands for this setting: Table 50, Yap1 mRNA remaining as percent of untreated control (UT), SNU-449 cells, single dose.
[9] abbreviates: Table 51, Yap1 mRNA remaining as percent of untreated control (UT), SNU-449 cells, single dose.
The mark [10] stands for this setting: Yap1 mRNA, percent of untreated control, modified oligonucleotides targeting SEQ ID NO: 1 and 2, Table 47.

As to “1198753 (k[5mC]*eT*kT*dT*dG*dG*dA*dA*dG*dA*dT*d[5mC]*eT*eG*kA*kA; antisense) [Compound 1198753]”, the “YAP1 (% UTC)” value under setting [1] is 58 % UTC.

As for “1200802 (TATAACTGGGCAAATT; cEt gapmer, phosphorothioate, 5-methylcytosine, chemistry not fully specified) [Compound 1200802]”, the “YAP1 (% UT)” value under setting [2] is on record as 89 % UT.

As to “1198830 (kA*k[5mC]*dT*dT*dT*dT*dA*d[5mC]*dA*dT*dT*kA*eG*kG*eA*kA) [Compound 1198830]”, the “YAP1 (% UT)” value under setting [3] was found to be 37 % UT.

Take “1198416 (kA*dG*dA*dT*dT*dT*dA*dG*dG*dA*dT*kG*e[5mC]*kA*eT*kG; antisense) [Compound 1198416]”: the “YAP1 (% UTC)” value under setting [4] is given as 29 % UTC.

In the case of “1198888 (kA*kG*dA*d[5mC]*dT*dA*dA*dG*dT*dA*dA*kG*eG*kT*eT*kT; antisense) [Compound 1198888]”, the “YAP1 (% UT)” value under setting [3] is recorded as 51 % UT.

As for “1198937 (k[5mC]*kA*dG*dA*dT*dT*dT*dA*dG*dG*dA*kT*dG*k[5mC]*dA*kT; antisense) [Compound 1198937]”, the “YAP1 (% UTC)” value under setting [5] amounted to 48 % UTC.

Consider “1198294 (kA*kG*kA*dG*dT*dA*dT*dG*dT*dG*dG*d[5mC]*kA*eA*kT*eA; antisense) [Compound 1198294]”, for which the “YAP1 (% UT)” value under setting [6] is on record as 13 % UT.

Turning to “1198237 (AGTGCTTTGGAAGATC; chemistry not fully specified) [Compound 1198237]”, the “YAP1 (% UTC)” value under setting [7] is given as 51 % UTC.

As for “1198327 (kT*kT*kT*dA*dG*dG*dA*dT*dG*d[5mC]*dA*dT*kG*eG*kT*eT; antisense) [Compound 1198327]”, the “YAP1 (% UT)” value under setting [6] is reported as 29 % UT.

In the case of “1200788 (kG*kA*kA*dA*dT*mU*dG*dT*d[5mC]*dT*d[5mC]*dA*dT*kG*k[5mC]*k[5mC]; antisense) [Compound 1200788]”, the “YAP1 (% UT)” value under setting [2] was determined as 19 % UT.

Regarding “1200863 (k[5mC]*kT*kT*dT*dA*mA*dA*dG*dT*dG*dT*dA*dT*kG*kT*k[5mC]; antisense) [Compound 1200863]”, the “YAP1 (% UT)” value under setting [2] was 41 % UT.

On to “1197233 (antisense kT*kA*kG*dA*mG*dT*dA*dT*dG*dT*dG*dG*d[5mC]*kA*kA*kT) [Compound 1197233]”, for which the “YAP1 (% UT)” value under setting [8] came to 36 % UT.

With “1198959 (kA*kG*dT*dG*dT*dA*dT*dG*dT*d[5mC]*dA*kG*dA*kA*dG*kA; antisense) [Compound 1198959]”, the “YAP1 (% UTC)” value under setting [5] turned out to be 8 % UTC.

Turning to “1197270 (kT*kT*kA*dA*mA*dG*dT*dG*dT*dA*dT*dG*dT*k[5mC]*kA*kG) [Compound 1197270]”, the “YAP1 (% UT)” value under setting [9] stood at 2 % UT.

Consider “1198329 (kG*kA*kT*dT*dT*dA*dG*dG*dA*dT*dG*d[5mC]*kA*eT*kG*eG; antisense) [Compound 1198329]”, for which, under setting [6], the “YAP1 (% UT)” value was determined as 36 % UT.

For the substance “1198707 (kA*kA*dG*dT*dA*dA*dG*dG*dT*dT*dT*d[5mC]*k[5mC]*e[5mC]*kA*eG; antisense) [Compound 1198707]”, under setting [7], the “YAP1 (% UTC)” value stood at 31 % UTC.

Take “1198800 (antisense kA*e[5mC]*kT*dA*dA*dG*dT*dA*dA*dG*dG*dT*eT*eT*k[5mC]*k[5mC]) [Compound 1198800]”: the “YAP1 (% UTC)” value under setting [1] was determined as 47 % UTC.

In the case of “1198392 (kA*dA*d[5mC]*dA*d[5mC]*dT*dG*dA*dG*dG*dT*kA*eT*kA*eA*k[5mC]; antisense) [Compound 1198392]”, the “YAP1 (% UTC)” value under setting [4] was found to be 48 % UTC.

As to “1197208 (antisense kT*kA*kA*dT*dA*dT*dT*dG*d[5mC]*dA*dA*dT*d[5mC]*kT*kG*kT) [Compound 1197208]”, the “YAP1 (% UT)” value under setting [10] was determined as 66 % UT.

On to “1198246 (kT*k[5mC]*dA*dG*dA*dT*dT*dT*dA*dG*dG*eA*eT*eG*k[5mC]*kA; antisense) [Compound 1198246]”, for which, for the setting “Table 43 experiment, SNU-449 cells, 10,000 cells per well, free uptake, 2,000 nM, approximately 48 hours, RTS36584, Yap1 mRNA normalized to RIBOGREEN, relative to untreated control cells”, the “YAP1 (% UTC)” value came out at 30 % UTC.

Take “1198221 (kT*kT*dA*d[5mC]*dA*dT*dT*dA*dG*dG*dA*eA*e[5mC]*eA*kA*kG) [Compound 1198221]”: the “YAP1 (% UTC)” value under setting [7] amounted to 95 % UTC.

Take “1198763 (kG*eA*kT*dT*dT*dA*dG*dG*dA*dT*dG*d[5mC]*eA*eT*kG*kG; antisense) [Compound 1198763]”: under setting [1], the “YAP1 (% UTC)” value was determined as 26 % UTC.

Turning to “1198749 (kT*eT*kA*dA*dG*d[5mC]*dA*d[5mC]*dT*dT*dT*dT*eA*e[5mC]*kA*kT; antisense) [Compound 1198749]”, the “YAP1 (% UTC)” value under setting [1] is recorded as 73 % UTC.

In the case of “1198741 (kT*eT*kA*d[5mC]*dA*dT*dT*dA*dG*dG*dA*dA*e[5mC]*eA*kA*kG; antisense) [Compound 1198741]”, under setting [1], the “YAP1 (% UTC)” value turned out to be 60 % UTC.

Consider “1198642 (kT*kA*dT*dT*dA*dG*dA*dG*dT*dA*dT*dG*kT*eG*kG*e[5mC]; antisense) [Compound 1198642]”, for which the “YAP1 (% UTC)” value (Table 41, SNU-449 cells, 10,000 cells per well, free uptake, 2,000 nM modified oligonucleotide, approximately 48 hours, RTS36584, normalized to RIBOGREEN, Yap1 mRNA relative to untreated control cells) is given as 19 % UTC.

For “1198603 (antisense kA*kA*kT*dA*dT*dT*dG*d[5mC]*dA*dA*dT*d[5mC]*kT*kG*kT*e[5mC]) [Compound 1198603]”, the “YAP1 (% UT)” value under setting [8] is reported as 51 % UT.

Regarding “1200869 (k[5mC]*kT*kA*dA*dG*mU*dA*dA*dG*dG*dT*dT*dT*k[5mC]*k[5mC]*k[5mC]; antisense) [Compound 1200869]”, the “YAP1 (% UT)” value under setting [2] is reported as 25 % UT.

“1198517 (kA*kA*dT*dA*dT*dT*dG*d[5mC]*dA*dA*dT*e[5mC]*kT*eG*kT*e[5mC]; antisense) [Compound 1198517]”: the “YAP1 (% UTC)” value (Table 44 experiment, SNU-449 cells, 10,000 cells per well, free uptake, 2,000 nM, approximately 48 hours, RTS36584, Yap1 mRNA normalized to RIBOGREEN, relative to untreated control cells) is 36 % UTC.

As to “1198562 (antisense kA*kG*kG*dT*dA*dT*dA*dA*d[5mC]*dT*dG*dG*kG*k[5mC]*kA*eA) [Compound 1198562]”, the “YAP1 (% UT)” value under setting [8] is on record as 30 % UT.

For the substance “1198548 (antisense kT*kG*kG*dA*dA*dA*dT*dT*dG*dT*d[5mC]*dT*k[5mC]*kA*kT*eG) [Compound 1198548]”, the “YAP1 (% UT)” value (Table 49, Yap1 mRNA level relative to untreated control, modified oligonucleotides targeting SEQ ID NO.: 1 and 2) was 26 % UT.

On to “1198731 (kT*e[5mC]*kT*dA*dT*dA*dT*dT*dA*dG*dA*dG*eT*eA*kT*kG; antisense) [Compound 1198731]”, for which the “YAP1 (% UTC)” value under setting [1] was 59 % UTC.

Regarding “1197179 (antisense kT*kG*kG*dA*dA*dA*dT*dT*dG*dT*d[5mC]*dT*d[5mC]*kA*kT*kG) [Compound 1197179]”, the “YAP1 (% UT)” value under setting [10] turned out to be 16 % UT.

As for “1198452 (kA*d[5mC]*dT*dA*dA*dG*dT*dA*dA*dG*dG*kT*eT*kT*e[5mC]*k[5mC]; antisense) [Compound 1198452]”, under setting [4], the “YAP1 (% UTC)” value was 38 % UTC.

On to “1197276 (k[5mC]*kT*kA*dA*mG*dT*dA*dA*dG*dG*dT*dT*dT*k[5mC]*k[5mC]*k[5mC]; antisense) [Compound 1197276]”, for which the “YAP1 (% UT)” value under setting [9] was found to be 44 % UT.

For “1198831 (k[5mC]*kA*d[5mC]*dT*dT*dT*dT*dA*d[5mC]*dA*dT*kT*eA*kG*eG*kA; antisense) [Compound 1198831]”, under setting [3], the “YAP1 (% UT)” value is given as 12 % UT.

Take “1197287 (kT*kA*kT*dA*mU*dT*dA*dG*dA*dG*dT*dA*dT*kG*kT*kG) [Compound 1197287]”: the “YAP1 (% UT)” value under setting [8] is 108 % UT.

Regarding “1198240 (kT*kT*dA*dG*dG*dA*dT*dG*d[5mC]*dA*dT*eG*eG*eT*kT*kT) [Compound 1198240]”, under setting [7], the “YAP1 (% UTC)” value stood at 43 % UTC.

Take “1197298 (kA*kT*kA*dG*mU*dG*d[5mC]*dT*dT*dT*dG*dG*dA*kA*kG*kA) [Compound 1197298]”: the “YAP1 (% UT)” value under setting [9] stood at 46 % UT.

Turning to “1198622 (kT*kA*kA*dG*dT*dA*dA*dG*dG*dT*dT*dT*k[5mC]*k[5mC]*k[5mC]*eA; antisense) [Compound 1198622]”, the “YAP1 (% UT)” value under setting [8] stood at 26 % UT.
